For series [1], the system named is IL-6 secretion by synovial SW982 cells. Briefly: IL-1β-induced IL-6 secretion by SW982 cells (ELISA). The note with it: Homo sapiens, SW982; shorter incubation period (12 h), TRYP absent; read-out: IC50, IL-1β-induced IL-6 secretion by SW982 cells. In kind it is cell-based, human. How it is done:
FLS, HUVEC, SW982, and THP-1 cells were plated in 96 well plates (10^4 to 10^5 cells/well) for 48 h before treatment. At 2 days post-confluency, the cells were serum-starved and washed twice (with the exception of THP-1 cell, which were not washed) with FBS-free medium prior to the addition of test compounds. […] Culture supernatants were collected and stored at –80°C. The levels of MMP-1 and MMP-3 were determined in culture supernatants using commercially available ELISA kits according to the manufacturer’s instructions (R&D System, Minneapolis, MN, USA). IL-6 levels were also determined in the supernatants using a human IL-6 ELISA kit (BD Biosciences, San Jose, CA, USA).
For orientation: An ELISA detects its analyte on a solid surface through an enzyme-linked reagent.

Series [2] concerns c-Jun phosphorylation in FLS. Details: method as in Schepetkin et al., 2015. The note with it: ref Schepetkin et al., 2015; cited from earlier work.
Details of series [3]: method as in Schepetkin et al., 2012. The note with it: mice, 30 mg/kg i.p., serum; ref Schepetkin et al., 2012; cited from earlier work.
On the set-up of series [4]: method as in Plotnikov et al., 2020. The note with it: rats, i.p.; ref Plotnikov et al., 2020; cited from earlier work.
For series [5], the system named is CIA in DBA1/J mice. The note with it: ref Schepetkin et al., 2015, cited from earlier work.

Structures can show the parent of a compound that is named as a salt. Where two headings read alike, the source gives them in different places.

Here are results for three compounds from PMC7394103 (Frontiers in Pharmacology, 2020).

The term IC50 denotes the concentration at which inhibition is half-maximal.

For the compound `Oc1c2ccccc2c2c3c(cccc13)N=N2` [SP600125, reference compound], in series [1], the 50% inhibitory concentration (IC50) was found to be 1300 ± 500 nM.

Regarding `ON=C1c2ccccc2-c2nc3ccccc3nc21` [IQ-1S, 11H-indeno[1,2-b]quinoxalin-11-one oxime salt], the c-Jun phosphorylation result in series [2] is “inhibited c-Jun phosphorylation”. Besides, the AUC 0–12 h in series [3] was 7.4 µM·h. For the same compound, in series [4], the half-life in circulation was 12 h and the “time of peak serum concentration” value is reported as 5 min. Further, the “reduction of arthritis in the CIA model” value in series [5] (5 mg/kg i.p.) is “not very effective”. For the same compound, the “reduction of arthritis in the CIA model” value in series [5] (30 and 50 mg/kg i.p.) was “equally effective”.

`O=C1c2ccccc2-c2nc3ccccc3nc21` [IQ-18]: the “anti-inflammatory activity or therapeutic effects in CIA” value in series [5] (2012, Schepetkin et al.) was “did not have any anti-inflammatory activity or therapeutic effects in CIA”.
